The text below walks through data of US6395526B1, “DNA polymerase” (Takara Shuzo Co., Ltd., priority 1995, dated 2002).

The test system of assay [1] is gapped duplex plasmid (pUC118 vector). The experiment in a line: Accuracy of DNA synthesis reaction (white colony formation). Type of assay: biochemical. The conditions noted are these: 0.5 units DNA polymerase, 70° C. for 10 minutes. On the procedure:
The accuracy of DNA synthesis reaction by DNA polymerases was examined using a pUC118 vector (manufactured by Takara Shuzo Co., Ltd.), partially made single stranded (gapped duplex plasmid, as a template. The single stranded pUC118 vector was prepared by the method described in Molecular Cloning: A Laboratory Manual, 2nd ed., 4.44-4.48, published by Cold Spring Harbor Laboratory in 1989, edited by T. Maniatis et al., using a helper phage M13KO7 (manufactured by Takara Shuzo Co., Ltd.) with Escherichia coli MV1184 (manufactured by Takara Shuzo Co., Ltd.) as a host. The double stranded DNA was prepared by digesting the pUC118 vector with PvuII (manufactured by Takara Shuzo Co., Ltd.), subjecting the digested vector to agarose gel electrophoresis, and recovering a DNA fragment of about 2.8 kbp.
One microgram of the above single stranded DNA and 2 μg of the double stranded DNA were mixed to make 180 μl of a mixture with sterile distilled water, and the solution was then incubated at 70° C. for 10 minutes. Thereafter, twenty microliters of 20×SSC was added to the resulting mixture, and the mixture was further kept standing at 60° C. for 10 minutes. The DNA was recovered by subjecting to ethanol precipitation. […] The white or blue colonies formed on the plate were counted, and the formation rate of white colonies which were resulted from a DNA synthesis error was calculated.

For another assay, the system named is λ-DNA. The experiment in a line: PCR with λ-DNA as a template. Type of assay: biochemical. On the procedure:
In order to compare the performance of the DNA polymerase of the present invention in PCR with that of the Taq DNA polymerase, PCR was carried out with λ-DNA as a template. The reaction mixture for the DNA polymerase of the present invention had the following composition: 10 mM Tris-HCl (pH 9.2), 3.5 mM MgCl2, 75 mM KCl, 400 μM each of dATP, dCTP, dGTP and dTTP, 0.01% bovine serum albumin (BSA), and 0.1% Triton X-100. The reaction solution for the Taq DNA polymerase had the following composition: 10 mM Tris-HCl (pH 8.3), 1.5 mM MgCl2, 50 mM KCl, and 400 μM each of dATP, dCTP, dGTP and dTTP. Fifty microliters of a reaction mixture containing 5.0 ng/50 μl λ-DNA (manufactured by Takara Shuzo Co., Ltd.), 10 pmol/50 μl each of primer λ1 and primer λ11, and 3.7 units/50 μl DNA polymerase was prepared. The base sequences of the primer λ1 and the primer λ11 are shown by SEQ ID NO:8 and SEQ ID NO:9 in Sequence Listing, respectively. After, a 30-cycle PCR was carried out with the above reaction mixture, wherein one cycle is defined at 98° C. for 10 seconds and at 68° C. for 10 seconds. Five microliters of the reaction mixture was subjected to agarose gel electrophoresis, and the amplified DNA fragment was confirmed by staining with ethidium bromide.
The experiment was then carried out by changing the primer to the primer λ1 and the primer λ10. The base sequence of the primer λ10 is shown by SEQ ID NO:10 in Sequence Listing. Twenty-five microliters of a reaction mixture having a similar composition to that shown above and containing 2.5 ng of λ-DNA, 10 pmol of the primer λ1 and the primer λ10, respectively, and 3.7 units of DNA polymerase was prepared. The reaction mixture was reacted in 5 cycles under the same reaction conditions as those described above, and 5 μl of the reaction mixture was subjected to agarose gel electrophoresis and stained with ethidium bromide.

Setting [2] is: primer λ1 and primer λ10, 5 cycles.

“Taq DNA Polymerase: Taq DNA polymerase derived from Thermus aquaticus (TaKaRa Taq, manufactured by Takara Shuzo Co., Ltd.) [reference compound]”: in assay [1], the “white colony formation rate (DNA synthesis error)” value was 3.18%. The “length of DNA fragment amplified by PCR” value with λ-DNA (setting [2]) was “no specific amplification was observed”; with λ-DNA (primer λ1 and primer λ11, 30 cycles, enzyme used alone), “not found”.
For the substance “DNA Polymerase of the Present Invention: complex of first (ORF3, SEQ ID NO:2) and second (ORF4, SEQ ID NO:4) DNA polymerase-constituting proteins from Pyrococcus furiosus”, the “white colony formation rate (DNA synthesis error)” value in assay [1] is reported as 1.61%. Also, the “length of DNA fragment amplified by PCR” value in the assay with λ-DNA (setting [2]) is “about 15 kbp”.
